#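 Grown in 96-well plates, cells were treated for 48 hours with each compound at five concentrations. Insufficient inhibition: endpoint recorded as highest concentration tested. At the TGI there is no net growth.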
# Key:
# Test in all cases: NCI anticancer screen, dose series, 48 h
# SN12C renal = tested on: SN12C renal
# CAKI-1 renal = tested on: CAKI-1 renal
# HS 578T breast = tested on: HS 578T breast
# UACC-62 melanoma = tested on: UACC-62 melanoma
# MCF7 breast = tested on: MCF7 breast
# BT-549 breast = tested on: BT-549 breast
# HCT-116 colon = tested on: HCT-116 colon
# OVCAR-4 ovarian = tested on: OVCAR-4 ovarian
# SW-620 colon = tested on: SW-620 colon
# HT29 colon = tested on: HT29 colon
# SK-MEL-2 melanoma = tested on: SK-MEL-2 melanoma
# 786-0 renal = tested on: 786-0 renal
# EKVX NSCLC = tested on: EKVX NSCLC
# SNB-75 CNS = tested on: SNB-75 CNS
# MDA-N = tested on: MDA-N
# MDA-MB-435 = tested on: MDA-MB-435
# PC-3 prostate = tested on: PC-3 prostate
# SNB-19 CNS = tested on: SNB-19 CNS
# IGROV1 ovarian = tested on: IGROV1 ovarian
# OVCAR-5 ovarian = tested on: OVCAR-5 ovarian
# HOP-92 NSCLC = tested on: HOP-92 NSCLC
# MDA-MB-231 breast = tested on: MDA-MB-231 breast
# KM12 colon = tested on: KM12 colon
# LOX IMVI melanoma = tested on: LOX IMVI melanoma
# ACHN renal = tested on: ACHN renal
# M14 melanoma = tested on: M14 melanoma
# UO-31 renal = tested on: UO-31 renal
# SK-MEL-5 melanoma = tested on: SK-MEL-5 melanoma
# NCI-H226 lung = tested on: NCI-H226 lung
# OVCAR-8 ovarian = tested on: OVCAR-8 ovarian
# RXF 393 renal = tested on: RXF 393 renal
# SK-OV-3 ovarian = tested on: SK-OV-3 ovarian
# A549 NSCLC = tested on: A549 NSCLC
# COLO 205 colon = tested on: COLO 205 colon
# OVCAR-3 ovarian = tested on: OVCAR-3 ovarian
# NCI/ADR-RES ovarian = tested on: NCI/ADR-RES ovarian
# MALME-3M melanoma = tested on: MALME-3M melanoma
# SF-295 CNS = tested on: SF-295 CNS
# NCI-H460 lung = tested on: NCI-H460 lung
# HCT-15 colon = tested on: HCT-15 colon
# HL-60(TB) leukemia = tested on: HL-60(TB) leukemia
# U251 CNS = tested on: U251 CNS
# A498 renal = tested on: A498 renal
# SR leukemia = tested on: SR leukemia
# CCRF-CEM leukemia = tested on: CCRF-CEM leukemia
# UACC-257 melanoma = tested on: UACC-257 melanoma
# SK-MEL-28 melanoma = tested on: SK-MEL-28 melanoma
# NCI-H23 lung = tested on: NCI-H23 lung
# SF-268 CNS = tested on: SF-268 CNS
# SF-539 CNS = tested on: SF-539 CNS
# DU-145 prostate = tested on: DU-145 prostate
# NCI-H522 lung = tested on: NCI-H522 lung
# HOP-62 NSCLC = tested on: HOP-62 NSCLC
# TK-10 renal = tested on: TK-10 renal
# MOLT-4 leukemia = tested on: MOLT-4 leukemia
# RPMI-8226 leukemia = tested on: RPMI-8226 leukemia
# T-47D breast = tested on: T-47D breast
# K-562 leukemia = tested on: K-562 leukemia
# HCC-2998 colon = tested on: HCC-2998 colon
structure (smiles),measurement,setting,value
NCCSC(c1ccccc1)c1ccccc1,TGI,SN12C renal,> 100 µM
same,TGI,CAKI-1 renal,67.2 µM
same,TGI,HS 578T breast,76.5 µM
same,TGI,UACC-62 melanoma,31.3 µM
same,TGI,MCF7 breast,38 µM
same,TGI,BT-549 breast,> 100 µM
same,TGI,HCT-116 colon,30.9 µM
same,TGI,OVCAR-4 ovarian,46.8 µM
same,TGI,SW-620 colon,37.9 µM
same,TGI,HT29 colon,35.5 µM
same,TGI,SK-MEL-2 melanoma,32.8 µM
same,TGI,786-0 renal,32.8 µM
same,TGI,EKVX NSCLC,70.1 µM
same,TGI,SNB-75 CNS,79.9 µM
same,TGI,MDA-N,34.2 µM
same,TGI,MDA-MB-435,33.8 µM
same,TGI,PC-3 prostate,55.6 µM
same,TGI,SNB-19 CNS,> 100 µM
same,TGI,IGROV1 ovarian,27.8 µM
same,TGI,OVCAR-5 ovarian,34 µM
same,TGI,HOP-92 NSCLC,37.2 µM
same,TGI,MDA-MB-231 breast,37.3 µM
same,TGI,KM12 colon,35.6 µM
same,TGI,LOX IMVI melanoma,31.2 µM
same,TGI,ACHN renal,> 100 µM
same,TGI,M14 melanoma,29.9 µM
same,TGI,UO-31 renal,33.2 µM
same,TGI,SK-MEL-5 melanoma,31.1 µM
same,TGI,NCI-H226 lung,65.6 µM
same,TGI,OVCAR-8 ovarian,44 µM
same,TGI,RXF 393 renal,39.8 µM
same,TGI,SK-OV-3 ovarian,70.8 µM
same,TGI,A549 NSCLC,> 100 µM
same,TGI,COLO 205 colon,38.7 µM
same,TGI,OVCAR-3 ovarian,40.6 µM
same,TGI,NCI/ADR-RES ovarian,> 100 µM
same,TGI,MALME-3M melanoma,37.1 µM
same,TGI,SF-295 CNS,35.7 µM
same,TGI,NCI-H460 lung,29.3 µM
same,TGI,HCT-15 colon,> 100 µM
same,TGI,HL-60(TB) leukemia,0.793 µM
same,TGI,U251 CNS,33.3 µM
same,TGI,A498 renal,62.5 µM
same,TGI,SR leukemia,43 µM
same,TGI,CCRF-CEM leukemia,> 100 µM
same,TGI,UACC-257 melanoma,30 µM
same,TGI,SK-MEL-28 melanoma,35.7 µM
same,TGI,NCI-H23 lung,> 100 µM
same,TGI,SF-268 CNS,> 100 µM
same,TGI,SF-539 CNS,37.2 µM
same,TGI,DU-145 prostate,93.5 µM
same,TGI,NCI-H522 lung,38.4 µM
same,TGI,HOP-62 NSCLC,33.7 µM
same,TGI,TK-10 renal,31.8 µM
same,TGI,MOLT-4 leukemia,42.6 µM
same,TGI,RPMI-8226 leukemia,37.4 µM
O=C(c1ccc(Cl)cc1)N(C(=O)N1CCC(c2ccccc2)CC1)c1ccccc1,TGI,SN12C renal,> 100 µM
same,TGI,CAKI-1 renal,> 100 µM
same,TGI,HS 578T breast,> 100 µM
same,TGI,UACC-62 melanoma,> 100 µM
same,TGI,MCF7 breast,> 100 µM
same,TGI,BT-549 breast,73.6 µM
same,TGI,HCT-116 colon,> 100 µM
same,TGI,SW-620 colon,> 100 µM
same,TGI,HT29 colon,> 100 µM
same,TGI,SK-MEL-2 melanoma,> 100 µM
same,TGI,786-0 renal,> 100 µM
same,TGI,EKVX NSCLC,69 µM
same,TGI,T-47D breast,49.3 µM
same,TGI,SNB-75 CNS,9.27 µM
same,TGI,MDA-N,> 100 µM
same,TGI,MDA-MB-435,> 100 µM
same,TGI,PC-3 prostate,73.8 µM
same,TGI,SNB-19 CNS,> 100 µM
same,TGI,IGROV1 ovarian,> 100 µM
same,TGI,OVCAR-5 ovarian,57.3 µM
same,TGI,MDA-MB-231 breast,> 100 µM
same,TGI,KM12 colon,44.6 µM
same,TGI,LOX IMVI melanoma,> 100 µM
same,TGI,ACHN renal,> 100 µM
same,TGI,M14 melanoma,88.2 µM
same,TGI,UO-31 renal,98.7 µM
same,TGI,SK-MEL-5 melanoma,35.2 µM
same,TGI,NCI-H226 lung,99.7 µM
same,TGI,OVCAR-8 ovarian,> 100 µM
same,TGI,RXF 393 renal,62.5 µM
same,TGI,SK-OV-3 ovarian,> 100 µM
same,TGI,COLO 205 colon,> 100 µM
same,TGI,OVCAR-3 ovarian,> 100 µM
same,TGI,NCI/ADR-RES ovarian,> 100 µM
same,TGI,K-562 leukemia,> 100 µM
same,TGI,MALME-3M melanoma,84.6 µM
same,TGI,SF-295 CNS,> 100 µM
same,TGI,HCT-15 colon,> 100 µM
same,TGI,HL-60(TB) leukemia,61.5 µM
same,TGI,U251 CNS,> 100 µM
same,TGI,A498 renal,96.5 µM
same,TGI,CCRF-CEM leukemia,77.4 µM
same,TGI,UACC-257 melanoma,83 µM
same,TGI,SK-MEL-28 melanoma,> 100 µM
same,TGI,NCI-H23 lung,> 100 µM
same,TGI,SF-268 CNS,> 100 µM
same,TGI,SF-539 CNS,> 100 µM
same,TGI,DU-145 prostate,> 100 µM
same,TGI,TK-10 renal,> 100 µM
same,TGI,MOLT-4 leukemia,57.1 µM
same,TGI,RPMI-8226 leukemia,52.3 µM
c1ccc(CN2CCC3(CC2)SSC2(CCN(Cc4ccccc4)CC2)S3)cc1,TGI,SN12C renal,> 100 µM
same,TGI,CAKI-1 renal,85.5 µM
same,TGI,HS 578T breast,> 100 µM
same,TGI,HCC-2998 colon,93.6 µM
same,TGI,UACC-62 melanoma,> 100 µM
same,TGI,BT-549 breast,> 100 µM
same,TGI,HCT-116 colon,> 100 µM
same,TGI,OVCAR-4 ovarian,> 100 µM
same,TGI,SW-620 colon,> 100 µM
same,TGI,HT29 colon,43.5 µM
same,TGI,SK-MEL-2 melanoma,> 100 µM
same,TGI,786-0 renal,> 100 µM
same,TGI,SNB-75 CNS,> 100 µM
same,TGI,MDA-N,> 100 µM
same,TGI,MDA-MB-435,> 100 µM
same,TGI,PC-3 prostate,> 100 µM
same,TGI,IGROV1 ovarian,> 100 µM
same,TGI,OVCAR-5 ovarian,> 100 µM
same,TGI,HOP-92 NSCLC,> 100 µM
same,TGI,MDA-MB-231 breast,> 100 µM
same,TGI,KM12 colon,> 100 µM
same,TGI,LOX IMVI melanoma,> 100 µM
same,TGI,ACHN renal,> 100 µM
same,TGI,M14 melanoma,> 100 µM
same,TGI,UO-31 renal,> 100 µM
same,TGI,OVCAR-8 ovarian,> 100 µM
same,TGI,SK-OV-3 ovarian,> 100 µM
same,TGI,A549 NSCLC,> 100 µM
same,TGI,COLO 205 colon,33.3 µM
same,TGI,OVCAR-3 ovarian,> 100 µM
same,TGI,NCI/ADR-RES ovarian,> 100 µM
same,TGI,K-562 leukemia,> 100 µM
same,TGI,MALME-3M melanoma,> 100 µM
same,TGI,SF-295 CNS,83.9 µM
same,TGI,NCI-H460 lung,84.6 µM
same,TGI,HCT-15 colon,> 100 µM
same,TGI,HL-60(TB) leukemia,> 100 µM
same,TGI,U251 CNS,> 100 µM
same,TGI,SR leukemia,> 100 µM
same,TGI,CCRF-CEM leukemia,> 100 µM
same,TGI,UACC-257 melanoma,> 100 µM
same,TGI,SK-MEL-28 melanoma,> 100 µM
same,TGI,NCI-H23 lung,> 100 µM
same,TGI,SF-539 CNS,> 100 µM
same,TGI,DU-145 prostate,> 100 µM
same,TGI,HOP-62 NSCLC,> 100 µM
same,TGI,TK-10 renal,> 100 µM
same,TGI,MOLT-4 leukemia,> 100 µM
same,TGI,RPMI-8226 leukemia,98.4 µM
COC(=O)c1sc(=S)sc1SCc1ccc(CSc2sc(=S)sc2C(=O)OC)cc1,TGI,SN12C renal,> 100 µM
same,TGI,CAKI-1 renal,> 100 µM
same,TGI,HS 578T breast,> 100 µM
same,TGI,HCC-2998 colon,> 100 µM
same,TGI,UACC-62 melanoma,> 100 µM
same,TGI,MCF7 breast,> 100 µM
same,TGI,BT-549 breast,> 100 µM
same,TGI,HCT-116 colon,> 100 µM
same,TGI,OVCAR-4 ovarian,> 100 µM
same,TGI,SW-620 colon,> 100 µM
same,TGI,HT29 colon,> 100 µM
same,TGI,SK-MEL-2 melanoma,> 100 µM
same,TGI,786-0 renal,> 100 µM
same,TGI,EKVX NSCLC,> 100 µM
same,TGI,T-47D breast,> 100 µM
same,TGI,SNB-75 CNS,> 100 µM
same,TGI,MDA-N,> 100 µM
same,TGI,MDA-MB-435,> 100 µM
same,TGI,PC-3 prostate,> 100 µM
same,TGI,SNB-19 CNS,> 100 µM
same,TGI,IGROV1 ovarian,> 100 µM
same,TGI,OVCAR-5 ovarian,> 100 µM
same,TGI,HOP-92 NSCLC,> 100 µM
same,TGI,MDA-MB-231 breast,> 100 µM
same,TGI,KM12 colon,> 100 µM
same,TGI,LOX IMVI melanoma,> 100 µM
same,TGI,ACHN renal,> 100 µM
same,TGI,M14 melanoma,> 100 µM
same,TGI,UO-31 renal,> 100 µM
same,TGI,SK-MEL-5 melanoma,> 100 µM
same,TGI,NCI-H226 lung,> 100 µM
same,TGI,OVCAR-8 ovarian,> 100 µM
same,TGI,RXF 393 renal,> 100 µM
same,TGI,SK-OV-3 ovarian,> 100 µM
same,TGI,A549 NSCLC,> 100 µM
same,TGI,COLO 205 colon,> 100 µM
same,TGI,OVCAR-3 ovarian,> 100 µM
same,TGI,NCI/ADR-RES ovarian,> 100 µM
same,TGI,K-562 leukemia,> 100 µM
same,TGI,MALME-3M melanoma,> 100 µM
same,TGI,SF-295 CNS,> 100 µM
same,TGI,NCI-H460 lung,> 100 µM
same,TGI,HCT-15 colon,> 100 µM
same,TGI,U251 CNS,> 100 µM
same,TGI,A498 renal,> 100 µM
same,TGI,CCRF-CEM leukemia,> 100 µM
same,TGI,UACC-257 melanoma,> 100 µM
same,TGI,SK-MEL-28 melanoma,> 100 µM
same,TGI,NCI-H23 lung,> 100 µM
same,TGI,SF-268 CNS,> 100 µM
same,TGI,DU-145 prostate,> 100 µM
same,TGI,NCI-H522 lung,> 100 µM
same,TGI,HOP-62 NSCLC,> 100 µM
same,TGI,TK-10 renal,> 100 µM
same,TGI,MOLT-4 leukemia,> 100 µM
